A short description of this data set: Human HepG2 cell viability assay in 384 well format. It is filed as toxicity, cell-based. More on the design: dose 125 nL, time 70.5 hour; concentration not given beside the values. The note with it: HepG2 cells, read-out: Inhibition.

Consider 90 compounds from ChEMBL document CHEMBL3507680, “University of Dundee, Gates Library screen for HepG2 cell viability”.

SMILES strings stand for the structures.

As for `COCC(=O)NC[C@H]1C[C@@H]2CCN1C[C@@H]2CN(C)c1ccccc1`, the cytotoxicity at 70.5 h came out at 0.807%.
Consider `CC[C@H]1CN(C(=O)C(C)(C)C)CC[C@H]1CC(=O)O`, for which the cytotoxicity at 70.5 h worked out at 7.7%.
For `COc1ncccc1CN1CCc2[nH]nc(C(=O)N(C)C)c2C1` the value was -11.3%; for `Cc1cccc(CN2CCCC23CCNC3)n1` (stereo not given), 24.8%.
With `COCCN1C[C@H]2CCN(C(=O)c3cc(C)on3)CC[C@H]2S1(=O)=O`, the cytotoxicity at 70.5 h is -5.47%.
As for `CN1CCN(Cc2cccnc2)C(=O)C12CCN(S(C)(=O)=O)CC2`, the figure is -5.92%; as for `C[C@@H]1C[C@H]2CN(S(=O)(=O)c3ccc(F)cc3)C[C@H]2O1`, -4.41%; as for `Cn1cccc1C(=O)N1C[C@H]2CN(Cc3cccnc3)C[C@H]2C1`, -1.49%.
Take `COc1ccc(C[C@H]2CNCC[C@@H]2OCC2CC2)cc1`: the cytotoxicity at 70.5 h was -8.25%.
As for `CN1C(=O)C2(CCN(C(=O)C3CCOCC3)CC2)c2ccccc21`, the figure is -3.31%.
As for `O=C(CCc1ccccc1)N[C@H]1CC[C@@]2(CCC(=O)N2)CC1`, the figure is -8.44%; as for `COc1ccc(C[C@H]2CN(C(=O)c3cc(C)no3)CC[C@H]2OC)cc1`, -5.12%; as for `Cc1ccc(CN2CCC3(CCCN3C(=O)C(C)C)CC2)o1`, 5%.
For `O=C(C1CCC1)N1C[C@@H]2CN(c3ccccc3)C(=O)[C@@H]2C1` the value was 11%.
For the compound `CO[C@H]1CCN(C(=O)c2cc(C)on2)C[C@@H]1Cc1ccccc1`, the cytotoxicity at 70.5 h turned out to be 5.73%.
As to `CN(C)CC(=O)N1CC2(CCN(S(=O)(=O)c3ccccc3)C2)C1`, the cytotoxicity at 70.5 h is -6.71%.
As for `NCC1[C@H]2CN(Cc3cccc(Cl)c3)C[C@@H]12` (stereo not given in full), the figure is -5.77%; as for `CCS(=O)(=O)N1CCC2(CC(=O)N(c3ccccc3C)C2)C1` (stereo not given), 21.9%.
Turning to `Cc1oncc1C(=O)N1CCC2(CC1)CN(S(C)(=O)=O)c1ccccc12`, the cytotoxicity at 70.5 h is -3.56%.
`COc1ccc(CN2C[C@@H]3CN(C(=O)[C@H]4CCCO4)C[C@@H]3C2=O)cc1`: the cytotoxicity at 70.5 h is -4.12%.
In the case of `CN(C)CC(=O)N1CCC2(CCN(Cc3cccc(F)c3)CC2)C1`, the cytotoxicity at 70.5 h is -8.05%.
In the case of `O=C(NCCc1ccccn1)[C@@]12CCO[C@@H]1CCN(c1ncccn1)C2`, the cytotoxicity at 70.5 h is -2.15%.
As for `COc1ccc(C[C@H]2CN(C(=O)C3CC3)CC[C@H]2OC)cc1`, the figure is 21.5%; as for `CCN1C(=O)CCC12CCCN(CCc1ccccc1)C2` (stereo not given), 34.9%; as for `CN(C)CC(=O)N1CCC2(CC1)CN(Cc1ccccc1)C2`, 30.2%.
For `CS(=O)(=O)N1CCN(c2ccc3ccc(C(=O)NC4CC4)cn23)CC1` the value was 0.444%.
As for `COCCN1CCN(c2ccc3ccc(C(=O)NC4CC4)cn23)CC1`, the figure is -2.48%; as for `O=C(c1ccco1)N1CCC2(CCC(=O)N2Cc2ccncc2)CC1`, -2.64%; as for `COc1ccc(CC(=O)N2CCC3(CC2)CCN(CC(C)C)C3=O)cc1`, -10.5%.
Take `CC(=O)N1[C@H](CN(C)C)C[C@@H]2CN(C(=O)c3ccsc3)CC[C@@H]21`: the cytotoxicity at 70.5 h is -12.2%.
For `CCN1C(=O)CCC12CCN(C(=O)c1ccco1)CC2` the value was -11.8%; for `CC(=O)NCC(=O)N1CCC2(CC1)C(=O)N(CC1CC1)c1ccccc12`, -11.7%; for `O=C(NC1CC1)[C@H]1C[C@H]2OCC[C@H]2N(Cc2ccco2)C1`, -8.44%.
Consider `CCOCC1CN(Cc2cc(C)on2)Cc2cn(C)nc21` (stereo not given), for which the cytotoxicity at 70.5 h is 4.78%.
As for `O=C1NC(c2ccccc2)=N[C@@]12CC[C@@H]1CN(S(=O)(=O)C3CC3)C[C@@H]12`, the figure is 2.16%; as for `CN(C)CCOCC1CN(C(=O)c2ccccn2)Cc2ccnn2C1` (stereo not given), 6.38%; as for `O=C(c1ccc(Cl)cc1)N1CCc2nc(C(=O)N3CCCC3)sc2CC1`, 7.75%.
For `COCCN1CCn2cc(CNC(=O)C3CCC3)nc2C1` the value was 1.63%.
As for `CNC(=O)c1nc2c(s1)CCN(C(=O)c1ccc(OC)cc1)CC2`, the figure is -7.87%.
With `CN(C)CCOCC1CN(C(=O)c2cccnc2)Cc2ccnn2C1` (stereo not given), the cytotoxicity at 70.5 h is -6.34%.
For `Cc1cccc(N2CC3(CCN(S(=O)(=O)c4ccccc4)C3)CC2=O)c1` (stereo not given) the value was -6.5%; for `Cc1cccc(CN2C[C@@H](C)[C@@]3(CCN(CC(=O)N(C)C)C3=O)C2)c1`, -10%; for `Cc1nn(C)c(C)c1S(=O)(=O)N1CC[C@@H]2O[C@@H](C)C[C@H]2C1`, -11.2%.
As for `CCN1CC[C@@]2(C(=O)N3CCOCC3)CCN(C(=O)C(C)C)CC[C@@H]12`, the figure is 18.4%.
As for `Cn1cccc1C(=O)N1C[C@H]2CN(Cc3cccc(F)c3)C[C@H]2C1`, the figure is -6.11%.
As to `CCN1C[C@@H]2[C@@H](OC)CCN(C(=O)Cc3ccsc3)[C@@H]2C1`, the cytotoxicity at 70.5 h is -5.4%.
For `Cc1ccc(CN2CCC3(CC2)C(=O)Nc2ccccc23)s1` the value was -7.74%; for `CN1C(=O)CC(c2ccccc2)C12CCN(CC1CCOCC1)CC2` (stereo not given), -6.6%.
As for `CN(C)C(=O)CC1CC2(CCN(CC3CC3)CC2)Oc2ccccc21` (stereo not given), the figure is -3.69%.
Consider `O=C1Nc2ccccc2C12CCN(c1nccs1)CC2`, for which the cytotoxicity at 70.5 h was -3.17%.
For `O=C1CC[C@]2(CC[C@@H](NC(=O)NCc3cccnc3)CC2)N1` the value was -2.72%; for `Cc1ccc(CN2CC[C@H]3NC(=O)CC[C@@H]32)o1`, -6.53%.
As for `COCCN1C[C@@H]2[C@@H](OC)CCN(C(=O)Cc3ccsc3)[C@@H]2C1`, the figure is -8.01%.
As for `O=C(Cc1ccccc1)N1CCC2(CCN2Cc2ccc(F)cc2)C1` (stereo not given), the figure is 7.36%.
Regarding `COCCN1CCC2(CC1)CC(NC(=O)CC1CC1)c1ccccc1O2` (stereo not given), the cytotoxicity at 70.5 h is -6.99%.
As for `O=C1N(Cc2cccc(F)c2)CCC12CCN(c1ccccn1)CC2`, the figure is -8.45%.
As for `COCC(=O)NC1CC2(CCN(CC3CC3)CC2)Oc2ccccc21` (stereo not given), the figure is 18.1%; as for `CN1C(=O)CC[C@]12CC[C@@H](NCc1ccsc1)CC2`, -5.76%.
As for `CN(C)CCN1C(=O)CCC12CCCN(C(=O)C1CC=CC1)CC2` (stereo not given), the figure is -1.28%; as for `COC1COC2(CCN(Cc3ccc4c(c3)OCO4)CC2)C1` (stereo not given), 0.98%; as for `Cc1cccc(CN2C[C@@H]3CN(C(=O)NC(C)C)C[C@@H]3C2=O)n1`, -12%.
Take `Cc1cccc(CN2C[C@@H]3CN(C(=O)c4ccco4)C[C@@H]3C2=O)n1`: the cytotoxicity at 70.5 h was -13.1%.
Regarding `O=C1CCCN1Cc1nnc2n1CCN(Cc1ccccn1)CC2`, the cytotoxicity at 70.5 h is -7.47%.
As for `Cc1cccc(CN2C[C@@H]3CN(C(=O)c4cnoc4C)C[C@@H]3C2=O)n1`, the figure is -5.42%; as for `Cc1ccc(CN2CCc3nnc(CN4CCCC4=O)n3CC2)s1`, -7.74%; as for `CC(C)Oc1ncnc2c1CCN(Cc1ccc(F)cc1)CC2`, -5.44%.
For the compound `CC(C)NC(=O)[C@H]1C[C@@H]2[C@@H](C1)OCCN2Cc1cccs1`, the cytotoxicity at 70.5 h was -2.88%.
Take `CNC(=O)[C@H]1C[C@H]2OCC[C@H]2N(CC2CC2)C1`: the cytotoxicity at 70.5 h is -3.14%.
For `O=C(NC1CC1)[C@H]1C[C@H]2OCC[C@H]2N(Cc2ccc(F)cc2)C1` the value was -6.46%; for `CCOc1ncnc2c1CCN(Cc1cccs1)CC2`, -8.1%; for `O=C([C@H]1C[C@H]2OCC[C@H]2N(Cc2ccco2)C1)N1CCCO1`, -14.8%.
For `O=C(C1=CCCC1)N1CC[C@]2(C[C@H](OCc3cccnc3)CO2)C1` the value was -12.5%; for `COc1ccc(C[C@H]2CN(c3cc(OC)ncn3)CC[C@H]2OC)cc1`, 11.6%; for `Cn1cccc1C(=O)N[C@@H]1CN(Cc2cccs2)[C@@H]2COC[C@@H]21`, -3.46%.
As for `Cc1oncc1C(=O)N[C@@H]1CN(c2ncccn2)C[C@@H]2CCCO[C@@H]21`, the figure is -10.7%; as for `COCC(=O)N1CCC2(CCN(Cc3cccnc3)C2)CC1`, -7.11%; as for `COCCN1CCC2(CC1)CCN(Cc1ccccn1)CC2`, -1.25%.
In the case of `O=C1CC[C@]2(CC[C@@H](NCc3cccnc3)CC2)N1Cc1ccccc1`, the cytotoxicity at 70.5 h is -11.6%.
With `O=C(c1n[nH]c2c1CN(C1CCOC1)CC2)N1CCOCC1` (stereo not given), the cytotoxicity at 70.5 h was -2.91%.
For `CCCN1CCC[C@]2(CCC(=O)N2Cc2ccncc2)[C@H]1CC` the value was -4.44%; for `O=C([C@H]1CN(Cc2cccnc2)C[C@H]2OCC[C@@H]12)N1CCCO1`, -6.93%; for `O=C([C@H]1CN(Cc2ccncc2)C[C@H]2OCC[C@@H]12)N1CCCCO1`, -14.4%.
In the case of `CN(C)CCO[C@H]1CN(Cc2ccoc2)[C@@H]2COC[C@H]12`, the cytotoxicity at 70.5 h is 6.76%.
As to `O=C(N[C@@H]1CN(c2ncccn2)C[C@@H]2CCCO[C@@H]21)c1cccnc1`, the cytotoxicity at 70.5 h is 7.96%.
For `CN(C)CCOCC1CN(C(=O)c2cccn2C)Cc2ccnn2C1` (stereo not given) the value was 8.36%; for `CN(C)CCO[C@H]1CN(Cc2ccc3c(c2)OCO3)[C@@H]2COC[C@H]12`, -4.2%; for `CN(C)CCOCC1CN(C(=O)c2ccnnc2)Cc2ccnn2C1` (stereo not given), -14%.
As for `CN(C)CCOCC1CN(C(=O)c2ccsc2)Cc2ccnn2C1` (stereo not given), the figure is -5.3%; as for `O=C1C[C@@H]2[C@H](CCN2Cc2ccccn2)N1Cc1ccncc1`, -4.28%.
For `c1cncc(C[C@H]2[C@H](N3CCOCC3)CCN2Cc2nccs2)c1` the value was -3.76%.
